In ChEMBL document CHEMBL2216752, “Carnitine palmitoyltransferase (CPT) modulators: a medicinal chemistry perspective on 35 years of research” (J Med Chem, 2011):

Experiments:
[1] = target: T1, Carnitine O-palmitoyltransferase 1, liver isoform (Rattus norvegicus, UniProt P32198); experiment: Inhibition of rat CPT1A using [3H]carnitine by radiometric assay
T1 sequence (P32198 whole entry): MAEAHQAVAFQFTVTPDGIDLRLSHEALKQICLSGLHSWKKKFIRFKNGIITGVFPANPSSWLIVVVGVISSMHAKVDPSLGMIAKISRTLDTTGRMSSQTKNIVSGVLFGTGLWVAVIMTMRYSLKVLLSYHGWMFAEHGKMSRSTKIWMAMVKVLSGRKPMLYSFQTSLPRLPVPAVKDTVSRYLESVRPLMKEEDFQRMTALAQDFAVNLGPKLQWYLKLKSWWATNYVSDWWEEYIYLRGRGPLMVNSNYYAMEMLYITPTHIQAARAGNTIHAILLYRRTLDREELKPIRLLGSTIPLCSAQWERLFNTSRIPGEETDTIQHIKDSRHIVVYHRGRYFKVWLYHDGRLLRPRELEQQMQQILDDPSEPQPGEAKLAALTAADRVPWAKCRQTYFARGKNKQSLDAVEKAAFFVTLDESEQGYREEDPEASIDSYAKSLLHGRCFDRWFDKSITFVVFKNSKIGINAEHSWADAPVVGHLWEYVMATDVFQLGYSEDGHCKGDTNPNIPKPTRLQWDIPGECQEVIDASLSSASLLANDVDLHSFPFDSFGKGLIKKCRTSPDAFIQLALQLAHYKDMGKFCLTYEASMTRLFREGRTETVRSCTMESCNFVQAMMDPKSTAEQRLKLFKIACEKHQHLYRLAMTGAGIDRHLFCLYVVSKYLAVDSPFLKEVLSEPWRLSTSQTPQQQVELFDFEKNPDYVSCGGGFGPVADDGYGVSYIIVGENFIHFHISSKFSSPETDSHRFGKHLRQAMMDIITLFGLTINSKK

[2] = target: T2, Carnitine O-palmitoyltransferase 2, mitochondrial (Rattus norvegicus, UniProt P18886); experiment: Inhibition of rat CPT2 using [3H]carnitine by radiometric assay
T2 sequence (P18886 whole entry): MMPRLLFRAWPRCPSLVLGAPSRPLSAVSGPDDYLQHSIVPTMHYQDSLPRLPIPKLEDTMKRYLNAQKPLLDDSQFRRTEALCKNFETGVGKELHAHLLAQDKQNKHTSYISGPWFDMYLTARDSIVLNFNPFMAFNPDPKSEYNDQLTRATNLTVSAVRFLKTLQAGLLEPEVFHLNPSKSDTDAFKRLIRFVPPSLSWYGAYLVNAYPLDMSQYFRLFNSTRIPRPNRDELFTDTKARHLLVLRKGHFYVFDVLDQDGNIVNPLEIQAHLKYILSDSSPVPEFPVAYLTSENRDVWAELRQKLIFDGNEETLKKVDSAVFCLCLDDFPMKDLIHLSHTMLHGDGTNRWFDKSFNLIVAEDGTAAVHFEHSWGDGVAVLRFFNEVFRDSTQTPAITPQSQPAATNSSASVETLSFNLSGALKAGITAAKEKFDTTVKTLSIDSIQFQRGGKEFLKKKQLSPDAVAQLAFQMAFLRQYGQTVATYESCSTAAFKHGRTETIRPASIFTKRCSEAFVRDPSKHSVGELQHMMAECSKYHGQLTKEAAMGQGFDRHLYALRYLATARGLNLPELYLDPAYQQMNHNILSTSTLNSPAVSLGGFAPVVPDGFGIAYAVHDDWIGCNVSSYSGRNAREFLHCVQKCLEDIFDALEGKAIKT

[3] = Inhibition of rat FAO
[4] = Inhibition of human FAO
[5] = target: T3, Carnitine O-palmitoyltransferase 1, liver isoform (Homo sapiens, UniProt P50416); experiment: Inhibition of CPT1A
T3 sequence (P50416 whole entry): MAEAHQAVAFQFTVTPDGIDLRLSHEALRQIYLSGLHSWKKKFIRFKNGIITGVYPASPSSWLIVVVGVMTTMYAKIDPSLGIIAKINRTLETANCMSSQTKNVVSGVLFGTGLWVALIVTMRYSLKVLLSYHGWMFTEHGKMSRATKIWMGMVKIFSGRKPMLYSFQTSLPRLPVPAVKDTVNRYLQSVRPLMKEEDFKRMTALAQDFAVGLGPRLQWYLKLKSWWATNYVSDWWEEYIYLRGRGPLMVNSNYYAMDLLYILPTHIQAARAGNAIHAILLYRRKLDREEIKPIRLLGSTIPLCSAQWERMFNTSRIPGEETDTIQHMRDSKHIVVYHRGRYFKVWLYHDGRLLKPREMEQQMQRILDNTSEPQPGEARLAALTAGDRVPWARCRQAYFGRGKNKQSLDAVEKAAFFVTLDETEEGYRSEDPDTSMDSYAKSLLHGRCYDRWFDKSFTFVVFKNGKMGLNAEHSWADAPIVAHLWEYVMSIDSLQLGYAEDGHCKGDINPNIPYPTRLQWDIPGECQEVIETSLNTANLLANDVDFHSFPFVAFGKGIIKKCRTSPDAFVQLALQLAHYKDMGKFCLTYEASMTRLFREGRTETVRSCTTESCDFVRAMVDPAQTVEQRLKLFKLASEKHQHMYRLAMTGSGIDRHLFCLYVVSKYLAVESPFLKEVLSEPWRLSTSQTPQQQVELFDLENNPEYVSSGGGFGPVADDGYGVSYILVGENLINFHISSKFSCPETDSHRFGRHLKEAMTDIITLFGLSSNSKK

[6] = target: T4, Carnitine O-palmitoyltransferase 1, muscle isoform (Homo sapiens, UniProt Q92523); experiment: Inhibition of CPT1B
T4 sequence (Q92523 whole entry): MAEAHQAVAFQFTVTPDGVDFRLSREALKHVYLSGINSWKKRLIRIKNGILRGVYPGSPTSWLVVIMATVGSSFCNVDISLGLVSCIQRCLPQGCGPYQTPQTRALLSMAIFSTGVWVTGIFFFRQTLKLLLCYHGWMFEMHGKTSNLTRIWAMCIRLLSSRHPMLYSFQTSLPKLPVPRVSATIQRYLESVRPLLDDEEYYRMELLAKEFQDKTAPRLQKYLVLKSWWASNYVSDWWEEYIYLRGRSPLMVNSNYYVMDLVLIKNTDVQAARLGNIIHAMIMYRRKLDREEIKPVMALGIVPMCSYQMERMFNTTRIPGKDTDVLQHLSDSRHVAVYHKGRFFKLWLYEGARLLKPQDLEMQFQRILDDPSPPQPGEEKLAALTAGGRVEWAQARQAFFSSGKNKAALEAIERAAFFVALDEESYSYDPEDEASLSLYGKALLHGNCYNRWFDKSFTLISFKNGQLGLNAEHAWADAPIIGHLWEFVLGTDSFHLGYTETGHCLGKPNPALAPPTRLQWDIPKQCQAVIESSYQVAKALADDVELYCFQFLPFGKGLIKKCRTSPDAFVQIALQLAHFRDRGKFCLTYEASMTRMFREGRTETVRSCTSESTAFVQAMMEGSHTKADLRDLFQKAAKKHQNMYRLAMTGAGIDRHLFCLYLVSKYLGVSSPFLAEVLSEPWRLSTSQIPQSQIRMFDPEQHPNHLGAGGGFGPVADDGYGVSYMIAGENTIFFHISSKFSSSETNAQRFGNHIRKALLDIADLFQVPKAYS

[7] = Critical micelle concentration of compound; type: physicochemical
Mus musculus = experiment: Reduction in glucose level in db/db mouse at 30 mg/kgl/day, po for 12 days; type: functional; design: scale not given: the % may be the effect or the level left; conditions: dose 30 mg/kg
[8] = Inhibition of carnitine palmitoyltransferase in rat liver mitochondria assessed as conversion of [14C]palmitic acid to [14C]palmitoylcarnitine by radiometric assay
[9] = Inhibition of carnitine palmitoyltransferase in rat heart mitochondria assessed as conversion of [14C]palmitic acid to [14C]palmitoylcarnitine by radiometric assay
[10] = target: T5, Mitochondrial carnitine/acylcarnitine carrier protein (Homo sapiens, UniProt O43772); experiment: Inhibition of CACT
T5 sequence (O43772 whole entry): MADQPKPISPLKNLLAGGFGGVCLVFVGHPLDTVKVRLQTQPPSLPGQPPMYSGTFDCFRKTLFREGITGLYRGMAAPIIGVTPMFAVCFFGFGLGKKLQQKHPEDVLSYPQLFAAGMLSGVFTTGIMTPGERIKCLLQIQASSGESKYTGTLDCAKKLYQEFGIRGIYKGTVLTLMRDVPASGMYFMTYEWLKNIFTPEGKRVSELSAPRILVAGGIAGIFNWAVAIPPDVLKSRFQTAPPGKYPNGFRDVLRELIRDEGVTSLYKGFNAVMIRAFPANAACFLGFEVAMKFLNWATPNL

[11] = target: T2, Carnitine O-palmitoyltransferase 2, mitochondrial; experiment: Inhibition of rat CPT2
[12] = target: T3, Carnitine O-palmitoyltransferase 1, liver isoform; experiment: Inhibition of human CPT1A
[13] = target: T4, Carnitine O-palmitoyltransferase 1, muscle isoform; experiment: Inhibition of human CPT1B
[14] = target: T6, Carnitine O-palmitoyltransferase 2, mitochondrial (Homo sapiens, UniProt P23786); experiment: Inhibition of human CPT2
T6 sequence (P23786 whole entry): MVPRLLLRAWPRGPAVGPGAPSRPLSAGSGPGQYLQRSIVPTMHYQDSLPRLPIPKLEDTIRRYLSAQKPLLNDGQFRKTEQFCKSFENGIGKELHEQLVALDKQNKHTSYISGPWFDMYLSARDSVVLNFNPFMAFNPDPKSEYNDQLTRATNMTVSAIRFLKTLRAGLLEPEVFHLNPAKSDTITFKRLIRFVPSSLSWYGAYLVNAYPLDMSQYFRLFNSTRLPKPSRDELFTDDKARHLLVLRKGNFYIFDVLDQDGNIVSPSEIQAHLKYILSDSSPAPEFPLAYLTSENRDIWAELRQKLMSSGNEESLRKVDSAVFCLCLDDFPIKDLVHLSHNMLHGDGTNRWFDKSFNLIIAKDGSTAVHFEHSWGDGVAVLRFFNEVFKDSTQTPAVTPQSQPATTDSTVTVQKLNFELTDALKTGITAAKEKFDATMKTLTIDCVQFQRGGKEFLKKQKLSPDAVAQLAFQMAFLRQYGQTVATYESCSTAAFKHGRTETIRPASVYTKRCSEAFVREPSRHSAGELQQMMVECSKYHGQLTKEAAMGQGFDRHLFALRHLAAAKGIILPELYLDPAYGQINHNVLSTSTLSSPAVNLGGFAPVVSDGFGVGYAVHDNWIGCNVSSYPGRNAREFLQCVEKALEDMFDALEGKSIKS

SMILES	IC50 [11] [µM]	IC50 [12] [µM]	IC50 [13] [µM]	IC50 [14] [µM]	further results
CCCCCCCCCCCCCCCC1(O)C[N+](C)(C)CC(CC(=O)[O-])O1 (stereo in doubt; (+)-27)					IC50 [1]: 38.5 µM; IC50 [2]: 47.5 µM
O=C(O)[C@@]1(CCCCCCOc2ccccc2)CO1 [DECHLOROETOMOXIR]					IC50 [3]: 4.4 µM; IC50 [4]: 1.8 µM
O=C(O)C1(C(F)(F)CCCCCOc2ccc(Cl)cc2)CO1 (stereo not drawn)					IC50 [5]: 0.25 µM; IC50 [6]: > 50 µM
CCCCCCCC[C@H]1OC(=O)C(CSCCNC(=O)CCNC(=O)[C@H](O)C(C)(C)COP(=O)(O)OP(=O)(O)OC[C@H]2O[C@@H](n3cnc4c(N)ncnc43)[C@H](O)[C@@H]2OP(=O)(O)O)[C@@H]1C(=O)O (stereo partly drawn)					IC50 [5]: 0.24 µM; IC50 [6]: 0.36 µM
CCCCCCOc1cccc(OCCCCNC(=O)N[C@H](CC(=O)[O-])C[P+](C)(C)C)c1					CMC [7]: 0.55 mM; Activity (Mus musculus): 30%; IC50 [8]: 0.12 µM; IC50 [9]: 57.3 µM
CCCCCCCC[C@H]1OC(=O)C(C)=C1C(=O)O					IC50 [3]: > 100 µM; IC50 [4]: 77 µM
CCCCCCCCCC(=O)O[C@@H](CC(=O)[O-])C[N+](C)(C)C					IC50 [10]: 5 µM
O=C(NCc1cccs1)c1nn(Cc2cccc(C(F)(F)F)c2)c2ccccc12	> 100	0.026	> 100		
COc1ccc(C)cc1S(=O)(=O)N1CCCc2ccc(C(=O)Nc3ccc(CC(=O)O)cc3)cc21	16.7	0.16	3.5	2.8	
O=C(O)C(=O)c1ccc(OCCOc2ccc3ccccc3c2)s1	> 100	2.4	0.16	4.7	IC50 [3]: > 100 µM; IC50 [4]: 25.5 µM
O=C(COc1ccccc1)N1CCCC[C@@H]1c1nc(-c2ccccn2)cs1	30.7	0.02	> 100	4.8	
COc1ccc(-c2noc([C@H]3CCCCN3C(=O)COc3ccccc3)n2)cc1	> 100	0.065	> 100		
CCCCCCCCCCCNS(=O)(=O)N[C@H](CC(=O)[O-])C[N+](C)(C)C					IC50 [8]: 0.8 µM; IC50 [9]: 5.8 µM
O=C(O)c1ccc(NC(=O)c2cccc(NS(=O)(=O)c3ccc(Cl)c(Cl)c3)c2)cc1	28.5		6.4		
N[C@H](C(=O)O)c1ccc(O)cc1 [OXFENICINE]		> 100	> 100	> 100	IC50 [3]: > 100 µM; IC50 [4]: > 100 µM
CCCCCCCC(=O)O[C@@H](CC(=O)[O-])C[N+](C)(C)C					IC50 [10]: 35 µM
COc1ccc(Cl)cc1S(=O)(=O)N1CC(C(=O)O)Oc2ccc(C(=O)Nc3cccc(F)c3)cc21 (stereo not drawn)	> 100		3.4	> 100	
CCCCCCCCCCCCCCCC(=O)O[C@@H](CC(=O)[O-])C[N+](C)(C)C					IC50 [10]: 35 µM
COc1ccc(Cl)cc1S(=O)(=O)N1CCc2ccc(C(=O)Nc3ccc(C(=O)O)cc3)cc21	3.2	0.021	> 100	0.74	
